What all share (format): cell-based
For one test, the system named is U937 cells. Description: Antiproliferative activity, CCK-8 assay. The settings on record: Homo sapiens, U-937; 144 hours incubation, CCK-8, absorbance at 450 nm. As to the method: (§1) The cell models used in this example were human hematologic tumor cells, including NCI-H929, RPMI-8226, MV-4-11, U937 and WSU-DLCL-2. Some of the compounds of the present invention were selected to determine their inhibitory activity against the proliferation of NCI-H929, RPMI-8226, MV-4-11, U937, and WSU-DLCL-2 cells.
(§2) • ① The selected compounds were dissolved in DMSO to prepare 10 mM stock solutions. Compounds used within three months should be stored at room temperature in a desiccator; others could be stored at -20°C for long-term storage. • ② The above stock solutions and the positive reference compound pomalidomide were diluted with DMSO. Their initial concentrations were 10 µM. In the experiments of NCI-H929 and RPMI-8226 cells, 3-fold serial dilution with 11 concentration points was performed, with the lowest concentration of 0.00047 µM. The resulting solutions were shaken on a shaker for 5 minutes.
(§3) • ① The NCI-H929, RPMI-8226, MV-4-11, U937, and WSU-DLCL-2 cells in logarithmic growth phase were inoculated in a 96-well plate, 20,000 to 30,000 cells per well, and the plate was pre-cultured for 24 hours in an incubator (at 37°C and 5% CO2). • ② The culture medium in the plate was replaced, and the compounds and the positive control with corresponding concentrations were added to the plated at a volume of 50 µl. • ③ The plate was incubated for 144 hours in an incubator, then 15 µl of CCK-8 solution was added to each well, and incubated in the incubator for another 1-4 hours. • ④ The absorbance at 450 nm was measured using a microplate reader.
(§4) • ① Calculating % Inhibition: [formula] • ② Calculating IC50 value of compound and plotting dose-response curve: The IC50 value was calculated by fitting the % Inhibition and the logarithm of compound concentration to a nonlinear regression (dose response-variable slope) by using GraphPad 6.0. • Y = Bottom + (Top - Bottom) / (1 + 10^((LogIC50 - X) * HillSlope)) • X: log of inhibitor concentration; Y: % Inhibition.
(§5) After calculating % Inhibition, a dose-response curve was plotted with the logarithm of the test compound concentration as the x-axis and the average cell viability as the y-axis, and the IC50 value was obtained by fitting.

The next test concerns MV-4-11 cells. In words: Antiproliferative activity, CCK-8 assay. The conditions noted are these: Homo sapiens, MV4-11; 144 hours incubation, CCK-8, absorbance at 450 nm. As to the method: as §1, §2, §3, §4, §5
Another test concerns WSU-DLCL-2 cells. Description: Antiproliferative activity, CCK-8 assay. The settings on record: Homo sapiens, WSUDLCL2; 144 hours incubation, CCK-8, absorbance at 450 nm. How it is done: as §1, §2, §3, §4, §5
The subject of the next test is RPMI-8226 cells. In words: Antiproliferative activity, CCK-8 assay. The conditions noted are these: Homo sapiens, 144 hours incubation, CCK-8, absorbance at 450 nm. How it is done:
as §1, §2, §3, §4, §5

A further test has as its system NCI-H929 cells. In words: Antiproliferative activity, CCK-8 assay. The settings on record: Homo sapiens, 144 hours incubation, CCK-8, absorbance at 450 nm, read-out: IC50 (µM) H-929. As to the method:
as §1, §2, §3, §4, §5

In test [1] the test system is RPMI-8226-Lenalidomide-R cells. Description: Antiproliferative activity against resistant cells, CCK-8 assay. The settings on record: Homo sapiens, 144 hours incubation. As to the method:
(§6) In this example, lenalidomide-resistant human multiple myeloma cells, including NCI-H929 (NCI-H929-Lenalidomide-R) and RPMI-8226 (RPMI-8226-Lenalidomide-R), and pomalidomide-resistant human multiple myeloma cells, including NCI-H929 (NCI-H929-pomalidomide-R) and RPMI-8226 (RPMI-8226-pomalidomide-R), were selected as cell models to determine the inhibitory activity of compound I-8 of the present invention against the proliferation of the resistant cells.
(§7) • ① I-8 was dissolved in DMSO to prepare a 10 mM stock solution. Compounds used within three months should be stored at room temperature in a desiccator; others could be stored at -20°C for long-term storage. • ② The I-8 stock solution and the reference compounds lenalidomide and pomalidomide were all diluted with DMSO. Their initial concentrations were 10 µM. In the experiments of lenalidomide-resistant human multiple myeloma cells (NCI-H929 (NCI-H929-Lenalidomide-R) and RPMI-8226 (RPMI-8226-Lenalidomide-R) and pomalidomide-resistant human multiple myeloma cells (NCI-H929 (NCI-H929-pomalidomide-R) and RPMI-8226 (RPMI-8226-pomalidomide-R), 3-fold serial dilution with 11 concentration points was performed, with the lowest concentration of […]. The resulting solutions were shaken on a shaker for 5 minutes.
(§8) • ① The NCI-H929-Lenalidomide-R, RPMI-8226-Lenalidomide-R, NCI-H929-pomalidomide-R, and RPMI-8226-pomalidomide-R cells in logarithmic growth phase were inoculated in a 96-well plate, 20,000 to 30,000 cells per well, and the plate was pre-cultured for 24 hours in an incubator (at 37°C and 5% CO2). • ® The culture medium in the plate was replaced, and the compounds and the positive controls with corresponding concentrations were added to the plated at a volume of 50 µL. • ③ The plate was incubated for 144 hours in an incubator, then 15 µL of CCK-8 solution was added to each well, and the plate was incubated in the incubator for another 1-4 hours. • ④ The absorbance at 450 nm was measured using a microplate reader.
(§9) • ① Calculating % Inhibition: [formula] • ② Calculating IC50 value of compound and plotting dose-response curve: The IC50 value was calculated by fitting the % Inhibition and the logarithm of compound concentration to a nonlinear regression (dose response-variable slope) by using GraphPad 6.0. Y = Bottom + (Top−Bottom)/(1+10^(∧)((LogIC50−X)*HillSlope)) [formula] X: log of inhibitor concentration; Y: % Inhibition.
as §5

For test [2], the system named is RPMI-8226-pomalidomide-R cells. The description is as above. The settings on record: Homo sapiens, 144 hours incubation. As to the method:
as §6, §7, §8, §9, §5

Test [3] has as its system NCI-H929-pomalidomide-R cells. The test is described as above. The conditions noted are these: Homo sapiens, 144 hours incubation. How it is done: as §6, §7, §8, §9, §5
Test [4] concerns NCI-H929-Lenalidomide-R cells. The test is described as above. The conditions noted are these: Homo sapiens, 144 hours incubation. As to the method: as §6, §7, §8, §9, §5

Molecules are shown by their SMILES. A value given as a limit tells only on which side of the number the result lay.

As for `CN1Cc2c(NCc3ccc(CN4CCN(c5ccc(F)cc5)CC4)cc3)cccc2C(=O)N1C1CCC(=O)NC1=O` (stereo not drawn) [I-6], the IC50 in the test with U937 cells came out at 0.0522 µM; in the test with MV-4-11 cells, 0.0311 µM; in the test on WSU-DLCL-2 cells, 0.048 µM; in the test with RPMI-8226 cells, 1.26 µM; in the test on NCI-H929 cells, 0.032 µM.

Turning to `CN1Cc2c(NCc3ccc(CN4CCN(c5ccc(C#N)cc5)CC4)cc3)cccc2C(=O)N1C1CCC(=O)NC1=O` (stereo not drawn) [I-7], the 50% inhibitory concentration (IC50) in the test on U937 cells was found to be 0.0348 µM; with MV-4-11 cells, 0.0155 µM; in the test on WSU-DLCL-2 cells, 0.053 µM; with RPMI-8226 cells it was 0.442 µM; with NCI-H929 cells, 0.028 µM.

For `CN1Cc2c(cccc2[N+](=O)[O-])C(=O)N1C1CCC(=O)NC1=O` (stereo not drawn) [I-9, 3-(3-methyl-5-nitro-1-oxo-3,4-dihydrophthalazin-2(1H)-yl)piperidin-2,6-dione], the half-maximal inhibitory concentration (IC50) is > 10 µM with U937 cells; 0.39 µM in the test with MV-4-11 cells; 0.23 µM with WSU-DLCL-2 cells; 0.457 µM in the test with RPMI-8226 cells; > 10 µM in the test with NCI-H929 cells.

Regarding `CN1Cc2cc(N)ccc2C(=O)N1C1CCC(=O)NC1=O` (stereo not drawn) [I-10, 3-(6-amino-3-methyl-1-oxo-3,4-dihydrophthalazin-2(1H)-yl)piperidin-2,6-dione], the IC50 is > 10 µM in the test on U937 cells; 0.215 µM with MV-4-11 cells; 0.7 µM in the test on WSU-DLCL-2 cells; 0.38 µM in the test with RPMI-8226 cells; 5.85 µM in the test with NCI-H929 cells.

Turning to `CN1Cc2cc([N+](=O)[O-])ccc2C(=O)N1C1CCC(=O)NC1=O` (stereo not drawn) [I-11, 3-(3-methyl-6-nitro-1-oxo-3,4-dihydrophthalazin-2(1H)-yl)piperidin-2,6-dione], the IC50 was found to be 4.13 µM in the test on U937 cells; 0.294 µM in the test with MV-4-11 cells; 2.65 µM in the test on WSU-DLCL-2 cells; 2.97 µM in the test on RPMI-8226 cells; 2.54 µM with NCI-H929 cells.

With `CN1Cc2c(N)cc(F)cc2C(=O)N1C1CCC(=O)NC1=O` (stereo not drawn) [I-12, 3-(5-amino-7-fluoro-3-methyl-1-oxo-3,4-dihydrophthalazin-2(1H)-yl)piperidin-2,6-dione], the IC50 with U937 cells was 2.3 µM; with MV-4-11 cells it was 0.874 µM; in the test on WSU-DLCL-2 cells, 3.69 µM; in the test with RPMI-8226 cells, 0.499 µM; in the test with NCI-H929 cells, > 10 µM.

`CN1Cc2c(cc(F)cc2[N+](=O)[O-])C(=O)N1C1CCC(=O)NC1=O` (stereo not drawn) [I-13, 3-(7-fluoro-3-methyl-5-nitro-1-oxo-3,4-dihydrophthalazin-2(1H)-yl)piperidin-2,6-dione]: the IC50 in the test with U937 cells is 1.11 µM; with MV-4-11 cells, > 10 µM; with WSU-DLCL-2 cells, 0.88 µM; with RPMI-8226 cells it was 0.204 µM; in the test on NCI-H929 cells, 0.85 µM.

On to `Nc1cccc2c1CN(C1CCC(=O)NC1=O)C2=O` (stereo not drawn) [Lenalidomide], for which the IC50 in [1], in [2], in test [3] and in [4] was > 100 µM throughout.
